Consider two compounds from patent EP0441252B1, “Alkaline phosphatase enzymes having improved specific activity for use in indicator reagents” (ABBOTT LABORATORIES, priority 1990, dated 1991).

Test in all cases: Kinetic constants (Km) of purified alkaline phosphatase
The target of data set [1] is E. coli alkaline phosphatase variant pMA116, Lys^328 > Arg / Val^99 > Ala (Escherichia coli, UniProt P00634, form not given/K350R/V121A). To be noted: Table 1; substrate not given.
Data set [2] deals with E. coli alkaline phosphatase variant pMA115, Asp^101 > Ser (Escherichia coli, UniProt P00634, D123S, form not given). As to conditions: Table 1; substrate not given.
For data set [3], the system named is O=[N+]([O-])c1ccc(OP(=O)(O)O)cc1. It is filed as biochemical, E. coli. As to conditions: other: Table 1; substrate not given; pH 8.0; 25.0 °C.

What is called Km is the substrate concentration at which the rate is half of its maximum.

Sequence of E. coli alkaline phosphatase variant pMA116, Lys^328 > Arg / Val^99 > Ala (P00634 22-471 K350R/V121A): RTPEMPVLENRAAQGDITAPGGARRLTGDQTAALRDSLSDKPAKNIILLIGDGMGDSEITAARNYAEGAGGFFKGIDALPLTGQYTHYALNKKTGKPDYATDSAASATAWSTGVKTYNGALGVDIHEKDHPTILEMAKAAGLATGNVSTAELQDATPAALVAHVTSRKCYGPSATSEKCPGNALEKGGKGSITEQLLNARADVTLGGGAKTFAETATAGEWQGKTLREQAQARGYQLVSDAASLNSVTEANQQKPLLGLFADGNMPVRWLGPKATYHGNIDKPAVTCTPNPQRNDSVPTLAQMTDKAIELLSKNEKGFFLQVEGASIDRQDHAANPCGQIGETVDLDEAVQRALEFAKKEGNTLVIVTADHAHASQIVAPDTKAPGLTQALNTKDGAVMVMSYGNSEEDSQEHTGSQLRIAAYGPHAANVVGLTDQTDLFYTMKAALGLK
Sequence of E. coli alkaline phosphatase variant pMA115, Asp^101 > Ser (P00634 22-471 D123S): as the sequence (P00634 22-471 K350R/V121A) above, with A100V, D102S, R329K counted along it

For the compound `O=[N+]([O-])c1ccc(OP(=O)(O)O)cc1` [pNPP, p-nitrophenyl phosphate], the Michaelis constant (Km) in data set [1] came to 74 µM; in data set [2], 56 µM.

“E. coli alkaline phosphatase variant pMA110, Val^377 > Ala / Ser^415 > Gly (Escherichia coli K-12; S437G/V399A)”: the Km in data set [3] was found to be 23 µM.
